Numbers after ± are expanded uncertainties.
Key:
[1] = Liquid; for mass density: 298.2 K, 101.33 kPa
[2] = refractive index (Na D-line) (dimensionless); settings: 298.2 K; 101.33 kPa; Liquid; Standard Abbe refractometry

| mass density [1] [kg/m3] | Normal boiling temperature ([1]; Fischer boiling point apparatus:FP) [°C] | SMILES | refractive index [2] | mass density ([1]; Vibrating tube method) [kg/m3] | Normal boiling temperature ([1]; Fischer boiling point apparatus) [°C] |
| --- | --- | --- | --- | --- | --- |
| 1049.44 ± 3 | 118.1 ± 0.2 | CC(=O)O [acetic acid] | 1.3715 ± 0.0012 | – | – |
| – | – | CCCCOC(=O)c1ccccc1C(=O)OCCCC [dibutyl phthalate] | 1.4906 ± 0.0013 | 1050.13 ± 1.4 | 340.1 ± 0.2 |

— the NIST ThermoML archive (doi:10.1016/j.jct.2005.03.003)
